Measurements reported in patent US11096985B2, “Antimicrobial peptides, their variants and uses” (priority 2015, dated 2021).
Where a SMILES comes first, the peptide text is derived from it. [ ]: non-standard residue; d: D form.

Experiments:
[1] = tested on: clinical strains of Enterobacter cloacae; assay: MIC, clinical strains of Enterobacter cloacae; type: cell-based; parameters: unit: μg/ml; settings: microdilution, Muller Hinton broth-cation adjusted, 0.02% BSA, 0.2% acetic acid
Experimental: (§1) Minimum inhibition concentrations (MICs) were determined against Escherichia coli (ATCC 25922), Staphylococcus aureus (ATCC 25923), Klebsiella pneumoniae (ATCC 10031) and Pseudomonas aeruginosa (ATCC 27853). Also clinical strains of E. coli, K. pneumoniae, E. cloacae, P. aeruginosa, Serratia marcescens, Proteus mirabilis, S. pneumoniae, Acinetobacter baumannii, A. johnsonii and S. aureus were used for MICs assays. Additionally, clinical strains of yeast including Candida albicans, C. glabrata, C. parapsilosis and C. quillermondiae were used. The susceptibility of these microorganisms to Chain peptides were determined using micro broth dilution assay. Colonies of the respective microorganism from Muller Hinton (MH) agar plates incubated overnight were suspended in MH broth media and final concentration of microorganism was adjusted to 5.0×10^5 cfu/ml. An aliquot of 10 μl of each Chain peptide, or gentamicin, tetracycline as reference antibiotics were added in differing concentrations along with 90 μl of bacterial suspension to 96 well polypropylene plates and incubated at 37° C. for 20 to 24 hours. Concentrations of Chain peptides and reference antibiotics ranged from 0.125 to 128 μg/ml and the MICs were recorded as the lowest concentration with no visual growth of bacteria. Similarly, antifungal MICs were tested in Potato dextrose broth.
(§2) Clinical strains of yeasts including Candida albicans, C. glabrata, C. parapsilosis and C. quillermondiae were also tested with the 12 Chain peptides. The minimum inhibitory concentration (MICs) varied between these peptides and are presented in Tables 4a, 4b, 4c and 5a, 5b, 5c. Peptides Chain 105, 201 and 308 are broad spectrum antimicrobials with MICs between 0.5-32 μg/ml against all the bacteria and yeasts tested, except Serratia marcescens and Proteus mirabilis, against which the MICs were between 64-128 μg/ml. Peptide Chain 306 has narrow spectrum activity against E.coli at 1 μg/ml and for the rest of the bacterial strains at >32 μg/ml (FIG. 10).

[2] = tested on: clinical strains of Candida albicans; assay: MIC, clinical yeast strains, Candida albicans; type: cell-based; parameters: unit: μg/ml
Method in brief: (§3)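 Broth microdilution in Mueller Hinton broth, inoculum adjusted to 5.0×10^5 cfu/ml, peptide tested at 0.125 to 128 μg/ml and incubated at 37° C. for 20 to 24 hours. MIC was the lowest concentration with no visible growth. Yeasts were tested in potato dextrose broth.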

[3] = tested on: clinical strains of Streptococcus pneumoniae; assay: MIC, clinical strains of Streptococcus pneumoniae; type: cell-based; parameters: unit: µg/mL; settings: microdilution, Muller Hinton broth-cation adjusted, 0.02% BSA, 0.2% acetic acid
Experimental: as §1, §2

[4] = tested on: clinical strains of C. parapsilosis; assay: MIC, clinical yeast strains, C. parapsilosis; type: cell-based, Candida parapsilosis; parameters: unit: μg/ml
Method in brief: as §3

[5] = tested on: clinical strains of C. quillermondiae; assay: MIC, clinical yeast strains, C. quillermondiae; type: cell-based; settings: C. quillermondiae clinical yeast strain 1
Method in brief: as §3

[6] = tested on: clinical strains of Klebsiella pneumoniae; assay: MIC, clinical strains of K. pneumoniae; type: cell-based; parameters: unit: μg/ml; settings: microdilution, Muller Hinton broth-cation adjusted, 0.02% BSA, 0.2% acetic acid
Experimental: as §1, §2

[7] = tested on: clinical strains of C. glabrata; assay: MIC, clinical yeast strains, C. glabrata; type: cell-based, Candida glabrata; parameters: unit: μg/ml
Method in brief: as §3

[8] = tested on: clinical strains of Staphylococcus aureus; assay: MIC, clinical strains of S. aureus; type: cell-based; parameters: unit: μg/ml; settings: microdilution, Muller Hinton broth-cation adjusted, 0.02% BSA, 0.2% acetic acid
Experimental: as §1, §2

[9] = tested on: clinical strains of Escherichia coli; assay: MIC, clinical strains of E. coli; type: cell-based; parameters: unit: μg/ml; settings: microdilution, Muller Hinton broth-cation adjusted, 0.02% BSA, 0.2% acetic acid
Experimental: as §1, §2

[10] = tested on: clinical strains of Pseudomonas aeruginosa; assay: MIC, clinical strains of P. aeruginosa; type: cell-based; parameters: unit: μg/ml; settings: microdilution, Muller Hinton broth-cation adjusted, 0.02% BSA, 0.2% acetic acid
Experimental: as §1, §2

[11] = tested on: clinical strains of Serratia marcescens; assay: MIC, clinical strains of Serratia marcescens; type: cell-based; parameters: unit: µg/mL; settings: microdilution, Muller Hinton broth-cation adjusted, 0.02% BSA, 0.2% acetic acid
Experimental: as §1, §2

[12] = tested on: clinical strains of Proteus mirabilis; assay: MIC, clinical strains of Proteus mirabilis; type: cell-based; parameters: unit: µg/mL; settings: microdilution, Muller Hinton broth-cation adjusted, 0.02% BSA, 0.2% acetic acid
Experimental: as §1, §2

SMILES: CC(C)C[C@@H](NC(=O)[C@@H](Cc1c[nH]c2ccccc12)NC(=O)[C@@H](Cc1ccccc1)NC(=O)[C@@H](Cc1c[nH]c2ccccc12)NC(=O)[C@@H](CCCCN)NC(=O)[C@@H](CCCNC(=N)N)NC(=O)[C@H](N)Cc1c[nH]c2ccccc12)C(=O)N[C@H](Cc1ccccc1)C(=O)N[C@H](CCCCN)C(=O)N[C@H](CCCCN)C(=O)N[C@H](CCCNC(=N)N)C(=O)O [Chain309D] (H-[dW][dR][dK][dW][dF][dW][dL][dF][dK][dK][dR]-OH)
- Minimum inhibitory concentration ([1]; Enterobacter cloacae clinical strain 1): >128
- Minimum inhibitory concentration ([1]; Enterobacter cloacae clinical strain 2): 128
- Minimum inhibitory concentration ([1]; Enterobacter cloacae clinical strain 3): 64
- Minimum inhibitory concentration ([1]; Enterobacter cloacae clinical strain 4): 64
- Minimum inhibitory concentration ([1]; Enterobacter cloacae clinical strain 5): 32
- Minimum inhibitory concentration ([2]; Candida albicans clinical yeast strain 1): 32
- Minimum inhibitory concentration ([2]; Candida albicans clinical yeast strain 2): 32
- Minimum inhibitory concentration ([2]; Candida albicans clinical yeast strain 3): 16
- Minimum inhibitory concentration ([2]; Candida albicans clinical yeast strain 4): 16
- Minimum inhibitory concentration ([2]; Candida albicans clinical yeast strain 5): 32
- Minimum inhibitory concentration ([3]; Streptococcus pneumoniae clinical strain 1): 64
- Minimum inhibitory concentration ([3]; Streptococcus pneumoniae clinical strain 2): 64
- Minimum inhibitory concentration ([3]; Streptococcus pneumoniae clinical strain 3): 64
- Minimum inhibitory concentration ([3]; Streptococcus pneumoniae clinical strain 4): 64
- Minimum inhibitory concentration ([3]; Streptococcus pneumoniae clinical strain 5): 64
- Minimum inhibitory concentration ([4]; C. parapsilosis clinical yeast strain 1): 64
- Minimum inhibitory concentration ([4]; C. parapsilosis clinical yeast strain 2): 64
- Minimum inhibitory concentration ([4]; C. parapsilosis clinical yeast strain 3): 32
- Minimum inhibitory concentration ([4]; C. parapsilosis clinical yeast strain 4): 16
- Minimum inhibitory concentration [5]: 8
- Minimum inhibitory concentration ([6]; Klebsiella pneumoniae clinical strain 1): 128
- Minimum inhibitory concentration ([6]; Klebsiella pneumoniae clinical strain 2): 32
- Minimum inhibitory concentration ([6]; Klebsiella pneumoniae clinical strain 3): >128
- Minimum inhibitory concentration ([6]; Klebsiella pneumoniae clinical strain 4): 32
- Minimum inhibitory concentration ([6]; Klebsiella pneumoniae clinical strain 5): 128
- Minimum inhibitory concentration ([7]; C. glabrata clinical yeast strain 1): 32
- Minimum inhibitory concentration ([7]; C. glabrata clinical yeast strain 2): 64
- Minimum inhibitory concentration ([7]; C. glabrata clinical yeast strain 3): 4
- Minimum inhibitory concentration ([7]; C. glabrata clinical yeast strain 4): 128
- Minimum inhibitory concentration ([8]; Staphylococcus aureus clinical strain 1): 8
- Minimum inhibitory concentration ([8]; Staphylococcus aureus clinical strain 2): 16
- Minimum inhibitory concentration ([8]; Staphylococcus aureus clinical strain 3): 8
- Minimum inhibitory concentration ([8]; Staphylococcus aureus clinical strain 4): 8
- Minimum inhibitory concentration ([8]; Staphylococcus aureus clinical strain 5): 8
- Minimum inhibitory concentration ([9]; Escherichia coli clinical strain 1): 0.5
- Minimum inhibitory concentration ([9]; Escherichia coli clinical strain 2): 32
- Minimum inhibitory concentration ([9]; Escherichia coli clinical strain 3): 16
- Minimum inhibitory concentration ([9]; Escherichia coli clinical strain 4): 32
- Minimum inhibitory concentration ([9]; Escherichia coli clinical strain 5): 16
- Minimum inhibitory concentration ([10]; Pseudomonas aeruginosa clinical strain 1): 16
- Minimum inhibitory concentration ([10]; Pseudomonas aeruginosa clinical strain 2): 32
- Minimum inhibitory concentration ([10]; Pseudomonas aeruginosa clinical strain 3): 16
- Minimum inhibitory concentration ([10]; Pseudomonas aeruginosa clinical strain 4): 32
- Minimum inhibitory concentration ([10]; Pseudomonas aeruginosa clinical strain 5): 8
- Minimum inhibitory concentration ([11]; Serratia marcescens clinical strain 1): >128
- Minimum inhibitory concentration ([11]; Serratia marcescens clinical strain 2): >128
- Minimum inhibitory concentration ([11]; Serratia marcescens clinical strain 3): >128
- Minimum inhibitory concentration ([11]; Serratia marcescens clinical strain 4): >128
- Minimum inhibitory concentration ([11]; Serratia marcescens clinical strain 5): >128
- Minimum inhibitory concentration ([12]; Proteus mirabilis clinical strain 1): >128
- Minimum inhibitory concentration ([12]; Proteus mirabilis clinical strain 2): >128
- Minimum inhibitory concentration ([12]; Proteus mirabilis clinical strain 3): >128
- Minimum inhibitory concentration ([12]; Proteus mirabilis clinical strain 4): >128
- Minimum inhibitory concentration ([12]; Proteus mirabilis clinical strain 5): >128
